Results: US10328104B2, “Methods for treating nuclear factor kappa-light-chain-enhancer of activated B cell (NF-κB) dysregulation in a host in need thereof using eggshell membrane compositions” (ESM TECHNOLOGIES, LLC, priority 2015, dated 2019)

How the values were obtained:
[1] = system: human suffering from cardiovascular disease (hyperlipidemia, hypertriglyceridemia); assay: Lipid panel in humans suffering from cardiovascular disease taking NEM orally, case reports; type: in vivo; details: second subject; treated with 10 mg/day atorvastatin, before NEM
Method: (§1) The following examples are illustrative of the efficacy of an orally administered eggshell membrane product (trade name NEM®) in treating a human suffering from cardiovascular disease. […] The subject was treating their hypertension with 100 mg/day of atenolol. […] The subject had also had four cardiac stents placed to treat atherosclerotic stenosis (narrowing) of various cardiac blood vessels. The subject consumed one 500 mg capsule per day of NEM® as prepared in Example 5 for about 12 months before noticing an effect on lipid panel results. The subject continued the NEM® regimen for an additional approximately 12 months (about 2 years total). Follow-up lipid panel results were: TC=138 mg/dL, LDL=80 mg/dL, HDL=41 mg/dL, and TG=84 mg/dL. […] The subject also found it necessary to reduce the atenolol dose from 100 mg/day to 25 mg/day.
A second human with a recent history of cardiovascular disease (hyperlipidemia & hypertriglyceridemia only) was being treated with 10 mg/day of atorvastatin. Treated lipid panel results for this subject were: TC=207 mg/dL, LDL=114 mg/dL, HDL=47 mg/dL, and TG=247 mg/dL. […] The subject consumed one 500 mg capsule per day of NEM® as prepared in Example 5 for about 2 years. Follow-up lipid panel results were: TC=150 mg/dL, LDL=81 mg/dL, HDL=46 mg/dL, and TG=113 mg/dL.

[2] = system: human suffering from cardiovascular disease (hypertension); assay: Resting blood pressure in a human suffering from cardiovascular disease taking NEM orally, case report; type: in vivo; details: first subject; atenolol 100 mg/day, before NEM
Method: as §1

SMILES | HDL [1] | LDL [1] | TG [1] | Total cholesterol (TC) [1] | resting diastolic blood pressure [2] | resting systolic blood pressure [2]
CC(C)c1c(C(=O)Nc2ccccc2)c(-c2ccccc2)c(-c2ccc(F)cc2)n1CC[C@@H](O)C[C@@H](O)CC(=O)O [atorvastatin] | 47 mg/dL | 114 mg/dL | 247 mg/dL | 207 mg/dL |  | 
CC(C)NCC(O)COc1ccc(CC(N)=O)cc1 (stereo not drawn) [atenolol] |  |  |  |  | 84 mm Hg | 146 mm Hg
